Data on 45 compounds can be found in ChEMBL document CHEMBL3390844, “Development of substituted 7-phenyl-4-aminobenzothieno[3,2-d] pyrimidines as potent LIMK1 inhibitors” (Medchemcomm, 2011).

≈ marks a conversion by molar mass, not a printed value.

A short description of series [1]: Partition coefficient, log D of the compound at pH 7.4 by HPLC analysis. It counts as physicochemical. Conditions: octanol/water.
The nature of series [2]: In vitro intrinsic clearance in human liver microsomes at 1 uM by LC-MS analysis. The series is classed as ADME. The following applies: read-out: CLH.
Series [3] can be described thus: In vitro intrinsic clearance in mouse liver microsomes at 1 uM by LC-MS analysis. It counts as ADME. The following applies: read-out: CLH.
Series [4] can be described thus: Solubility of the compound in 0.01 M HCl at pH 2 by nephelometry. The series is classed as physicochemical.
Series [5] is described as follows: Solubility of the compound in phosphate buffer at pH 6.5 by nephelometry. It counts as physicochemical.
Series [6] concerns the target T1, LIM domain kinase 1 (Homo sapiens, UniProt P53667). In words: Inhibition of LIMK1 (unknown origin) assessed as remaining ATP level using cofilin-2 protein as substrate measured after 60 mins incubation with enzyme by KinaseGlo assay.
In series [7] the target is T1, LIM domain kinase 1. Kind of series: Inhibition of LIMK1 (unknown origin) assessed as ADP formation using cofilin-2 protein as substrate measured after 60 mins incubation with enzyme by Transcreener assay.
The target in another series is LIM domain kinase 2 (Homo sapiens, UniProt P53671). Kind of series: Inhibition of LIMK2 (unknown origin).
Series [8] has as its target T1, LIM domain kinase 1. Kind of series: Inhibition of LIMK1-catalyzed cofilin phosphorylation in human ZR-75-1 cells. The series is classed as cell-based.
Series [9] in a line: Plasma protein binding in human by LC-MS analysis. The series is classed as ADME, cell-free. The following applies: read-out: PPB (converted).

Chain of LIM domain kinase 2 (P53671 whole entry, the tested form may be a part): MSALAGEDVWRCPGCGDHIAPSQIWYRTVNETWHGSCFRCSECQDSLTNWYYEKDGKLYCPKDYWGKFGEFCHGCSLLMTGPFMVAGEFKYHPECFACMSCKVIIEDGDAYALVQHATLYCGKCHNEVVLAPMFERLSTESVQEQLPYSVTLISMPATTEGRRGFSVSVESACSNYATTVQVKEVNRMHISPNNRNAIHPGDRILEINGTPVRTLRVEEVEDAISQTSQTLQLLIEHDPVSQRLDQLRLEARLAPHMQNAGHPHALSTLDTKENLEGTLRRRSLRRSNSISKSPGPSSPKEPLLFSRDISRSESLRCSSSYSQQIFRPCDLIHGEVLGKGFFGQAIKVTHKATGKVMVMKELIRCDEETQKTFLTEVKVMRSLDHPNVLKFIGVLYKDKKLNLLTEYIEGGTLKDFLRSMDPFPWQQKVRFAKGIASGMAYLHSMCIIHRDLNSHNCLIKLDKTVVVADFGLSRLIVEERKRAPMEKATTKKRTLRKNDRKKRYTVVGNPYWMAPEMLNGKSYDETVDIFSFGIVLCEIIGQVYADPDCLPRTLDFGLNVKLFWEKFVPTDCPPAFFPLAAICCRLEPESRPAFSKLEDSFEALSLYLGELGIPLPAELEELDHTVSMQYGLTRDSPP
T1 sequence (P53667 whole entry, the tested form may be a part): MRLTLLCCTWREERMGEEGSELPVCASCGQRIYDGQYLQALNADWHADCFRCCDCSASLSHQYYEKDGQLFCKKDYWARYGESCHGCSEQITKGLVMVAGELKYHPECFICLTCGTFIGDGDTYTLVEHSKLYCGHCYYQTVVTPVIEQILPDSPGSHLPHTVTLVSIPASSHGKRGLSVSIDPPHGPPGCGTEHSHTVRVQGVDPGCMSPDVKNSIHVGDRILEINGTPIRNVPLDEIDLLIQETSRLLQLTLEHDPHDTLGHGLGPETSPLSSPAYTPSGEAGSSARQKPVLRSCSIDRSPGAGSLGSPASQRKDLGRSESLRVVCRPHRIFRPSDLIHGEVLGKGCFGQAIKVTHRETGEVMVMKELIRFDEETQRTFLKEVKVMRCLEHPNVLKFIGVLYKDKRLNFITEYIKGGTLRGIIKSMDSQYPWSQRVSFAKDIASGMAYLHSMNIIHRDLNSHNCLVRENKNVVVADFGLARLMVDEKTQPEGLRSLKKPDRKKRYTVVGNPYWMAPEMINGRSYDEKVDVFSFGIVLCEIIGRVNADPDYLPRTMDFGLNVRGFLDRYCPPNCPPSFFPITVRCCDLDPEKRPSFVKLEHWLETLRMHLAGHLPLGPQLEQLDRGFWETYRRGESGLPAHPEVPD

With `Cn1c2cc(-c3ccccc3)ccc2c2ncnc(N)c21`, the log distribution coefficient (logD) in series [1] stood at 3.4. The microsomal CLint at 1 µM in [2] was 70 µL/min/mg; in series [3] it was 572 µL/min/mg. Further, the solubility (kinetic) was 12.5 µg/mL (≈ 45.6 µM) in [4] and 3.1 µg/mL (≈ 11.3 µM) in series [5]. In the case of `Nc1ncnc2c1sc1cc(-c3cccnc3)ccc12`, the IC50 on LIM domain kinase 1 [6] was found to be 795 nM.

Turning to `COc1ccc(-c2ccc3c(c2)sc2c(N)ncnc23)cc1`, the IC50 at LIM domain kinase 1 [6] turned out to be 204 nM. For the compound `Nc1ncnc2c1sc1cc(-c3ccc(O)cc3)ccc12`, the IC50 on LIM domain kinase 1 [6] was 267 nM. With `CS(=O)(=O)c1ccc(-c2ccc3c(c2)sc2c(N)ncnc23)cc1`, the IC50 on LIM domain kinase 1 [6] was found to be 376 nM.

In the case of `N#Cc1ccc(-c2ccc3c(c2)sc2c(N)ncnc23)cc1`, at LIM domain kinase 1 [6], the half-maximal inhibitory concentration (IC50) was found to be 828 nM. Still for that read-out and setting: then `Nc1ccccc1-c1ccc2c(c1)sc1c(N)ncnc12`, with 310 nM. In series [1], `Nc1ncnc2c1sc1cc(-c3ccccc3)ccc12` returned a logD of 3.65. Besides, the microsomal CLint at 1 µM stood at 114 µL/min/mg in series [2] and 839 µL/min/mg in series [3]. For the same compound, the solubility (kinetic) in [4] was 6.3 µg/mL (≈ 22.7 µM); in series [5] it was less than 1.6 µg/mL. Take `COc1ccccc1-c1ccc2c(c1)sc1c(N)ncnc12`: the half-maximal inhibitory concentration (IC50) on LIM domain kinase 1 [6] was determined as 220 nM. For the compound `CCNC(=O)Nc1ncc(-c2cc(-c3c(C)cc(OC)cc3C)nc(-c3cnccn3)n2)s1`, the IC50 was determined as 54 nM at LIM domain kinase 1 [7] and 696 nM on LIM domain kinase 2. Also, in series [1], the logD was 3. Moreover, the microsomal CLint at 1 µM in series [2] is less than 5 µL/min/mg; in [3], 10 µL/min/mg. The solubility (kinetic) in series [4] and in series [5] was 1.6 µg/mL (≈ 3.47 µM) throughout. In the case of `Cn1c2cc(-c3ccc(O)cc3)ccc2c2ncnc(N)c21`, the 50% inhibitory concentration (IC50) at LIM domain kinase 1 [7] is 571 nM. Still for that read-out and setting: then `Nc1ncnc2c1sc1cc(-c3cccc(C(=O)NCCO)c3)ccc12`, with 228 nM. In the case of `Nc1ncnc2c1sc1cc(-c3ccncc3)ccc12`, the IC50 at LIM domain kinase 1 [6] worked out at 732 nM.

For `CC(=O)Nc1ccc(-c2ccc3c(c2)sc2c(N)ncnc23)cc1`, the concentration for half-maximal inhibition (IC50) on LIM domain kinase 1 [6] turned out to be 181 nM. Still for that read-out and setting: the same measure for `Nc1ncnc2c1sc1cc(-c3cccc(Cl)c3)ccc12`: 199 nM.

Consider `NC(=O)Nc1cccc(-c2ccc3c(c2)sc2c(N)ncnc23)c1`, for which the half-maximal inhibitory concentration (IC50) at LIM domain kinase 1 [7] came out at 145 nM. Turning to `Cn1c2cc(-c3cccc(C(N)=O)c3)ccc2c2ncnc(N)c21`, the IC50 at LIM domain kinase 1 [7] came out at 379 nM.

Regarding `CCNC(=O)Nc1cccc(-c2ccc3c(c2)sc2c(N)ncnc23)c1`, the 50% inhibitory concentration (IC50) was 87 nM on LIM domain kinase 1 [7], 164 nM on LIM domain kinase 2 and more than 30 µM on LIM domain kinase 1 [8]. In series [1], this compound returned a pH-dependent lipophilicity (logD) of 2.4. The values for the microsomal CLint at 1 µM in series [2] and in series [3] were 24 µL/min/mg and 68 µL/min/mg, respectively. In addition, the results for the solubility (kinetic) in series [4] and in series [5] were 12.5 µg/mL (≈ 34.4 µM) and 1.6 µg/mL (≈ 4.4 µM), respectively. In the case of `CS(=O)(=O)Nc1ccccc1-c1ccc2c(c1)sc1c(N)ncnc12`, the IC50 at LIM domain kinase 1 [6] is 998 nM. For the compound `C[C@@H](NC(=O)c1cccc(-c2ccc3c(c2)sc2c(N)ncnc23)c1)C(N)=O`, the IC50 at LIM domain kinase 1 [7] is 294 nM. In the case of `NC(=O)c1cccc(-c2ccc3c(c2)sc2c(N)ncnc23)c1`, the IC50 at LIM domain kinase 1 [7] is 120 nM; on LIM domain kinase 1 [6], 120 nM; at LIM domain kinase 2, 273 nM; against LIM domain kinase 1 [8], more than 30 µM. In addition, the logD in [1] came to 1.9. Further, the microsomal CLint at 1 µM in [2] is less than 5 µL/min/mg; in series [3], 26 µL/min/mg. Also, the fraction unbound in series [9] is 0.037. Further, the kinetic solubility amounted to 25 µg/mL (≈ 78 µM) in [4] and 3.1 µg/mL (≈ 9.68 µM) in [5]. As to `Nc1ncnc2c1sc1cc(-c3ccc(CO)cc3)ccc12`, the half-maximal inhibitory concentration (IC50) on LIM domain kinase 1 [6] was found to be 163 nM. With `CN1CCN(CCNC(=O)Nc2cccc(-c3ccc4c(c3)sc3c(N)ncnc34)c2)CC1`, the half-maximal inhibitory concentration (IC50) at LIM domain kinase 1 [7] was 223 nM. On to `Nc1ncnc2c1sc1cc(-c3ccc(-c4nn[nH]n4)cc3)ccc12`, for which, on LIM domain kinase 1 [6], the half-maximal inhibitory concentration (IC50) is 127 nM.

Turning to `Nc1ncnc2c1sc1cc(-c3cccc(C(=O)O)c3)ccc12`, at LIM domain kinase 1 [6], the IC50 was determined as 196 nM. As for `Nc1ncnc2c1sc1cc(-c3cccc(CO)c3)ccc12`, the IC50 at LIM domain kinase 1 [6] was found to be 129 nM. As for `Nc1ccc(-c2ccc3c(c2)sc2c(N)ncnc23)cc1`, the IC50 on LIM domain kinase 1 [6] was 159 nM. For `Nc1ncnc2c1sc1cc(-c3cccc(C(=O)N4CCOCC4)c3)ccc12`, the concentration for half-maximal inhibition (IC50) on LIM domain kinase 1 [7] is more than 1000 nM. Turning to `CS(=O)(=O)c1cccc(-c2ccc3c(c2)sc2c(N)ncnc23)c1`, the half-inhibitory concentration (IC50) on LIM domain kinase 1 [6] came out at 361 nM. Regarding `Nc1ncnc2c1sc1cc(-c3ccc(NC=O)cc3)ccc12`, at LIM domain kinase 1 [6], the half-maximal inhibitory concentration (IC50) stood at 44 nM. Still for that read-out and setting: then `CS(=O)(=O)Nc1ccc(-c2ccc3c(c2)sc2c(N)ncnc23)cc1`, with 243 nM.

With `Nc1ncnc2c1sc1cc(-c3ccccc3Cl)ccc12`, the IC50 at LIM domain kinase 1 [6] is more than 1000 nM. For `Nc1ncnc2c1sc1cc(-c3cccc(-c4nn[nH]n4)c3)ccc12`, the 50% inhibitory concentration (IC50) at LIM domain kinase 1 [6] was 50 nM; against LIM domain kinase 2, 90 nM; at LIM domain kinase 1 [8], more than 30 µM. This compound also returned a logD in series [1] of 2. Moreover, the microsomal CLint at 1 µM in [2] is less than 5 µL/min/mg; in series [3] it was less than 6 µL/min/mg. For the same compound, the fraction unbound in series [9] is 0.012. Also, the kinetic solubility in [4] and in series [5] was 6.3 µg/mL (≈ 18.2 µM) throughout. In [1], `CC(C)C(=O)Nc1ncc(-c2cc(C(F)F)nn2-c2c(Cl)cccc2Cl)s1` showed a pH-dependent lipophilicity (logD) of 3.8. The fraction unbound in [9] was 0.029. For `COc1cccc(-c2ccc3c(c2)sc2c(N)ncnc23)c1`, the IC50 at LIM domain kinase 1 [6] came out at 149 nM. For the compound `Cn1c2cc(-c3ccc(NC=O)cc3)ccc2c2ncnc(N)c21`, the IC50 at LIM domain kinase 1 [7] was determined as 498 nM. Turning to `Nc1ncnc2c1sc1cc(-c3cccc(NC=O)c3)ccc12`, the IC50 at LIM domain kinase 1 [7] and on LIM domain kinase 1 [6] was 55 nM in each case. As to `Nc1ncnc2c1sc1cc(-c3cccc(O)c3)ccc12`, the IC50 on LIM domain kinase 1 [6] was 230 nM. The same measure, in the same setting: the same measure for `CC(=O)c1ccc(-c2ccc3c(c2)sc2c(N)ncnc23)cc1`: 172 nM. Take `Nc1cccc(-c2ccc3c(c2)sc2c(N)ncnc23)c1`: the IC50 on LIM domain kinase 1 [6] was determined as 231 nM. `CC(C)NC(=O)Nc1cccc(-c2ccc3c(c2)sc2c(N)ncnc23)c1`: the half-inhibitory concentration (IC50) at LIM domain kinase 1 [7] worked out at 78 nM. Still for that read-out and setting: the same measure for `CC(C)CNC(=O)Nc1cccc(-c2ccc3c(c2)sc2c(N)ncnc23)c1`: 237 nM. For the compound `Nc1ncnc2c1sc1cc(-c3ccccc3O)ccc12`, on LIM domain kinase 1 [6], the IC50 is 260 nM. Regarding `NC(=O)c1ccc(-c2ccc3c(c2)sc2c(N)ncnc23)cc1`, the half-maximal inhibitory concentration (IC50) at LIM domain kinase 1 [6] was determined as 156 nM. Consider `CC(=O)Nc1cccc(-c2ccc3c(c2)sc2c(N)ncnc23)c1`, for which, on LIM domain kinase 1 [6], the 50% inhibitory concentration (IC50) came to 395 nM.
